Measurements from patent US20070219238A1 (priority 2004, published 2007).
Where two headings read alike, the source gives them in different places.

Test system: Phytophthora infestans
Type: in vivo
Conditions: individual active compound, potted tomato plants, protective, evaluated after 6 days

Row | Structure (SMILES) | Efficacy in % of the untreated control (50 ppm in the spray liquor) | Efficacy in % of the untreated control (100 ppm in the spray liquor)
1 | O=C([O-])[O-].[Cu+2].[Cu+2].[OH-].[OH-] [II-2, (basic) copper carbonate] | 0% | 11%
2 | C[C@H](Nc1c(-c2c(F)cc(F)cc2F)c(Cl)nc2ncnn12)C(F)(F)F [comparative compound B] | 0% | 
3 | [Cl-].[Cu+2].[Cu+2].[OH-].[OH-].[OH-] [II-1, copper oxychloride] | 0% | 22%
4 | [Cu+2].[OH-].[OH-] [II-3, copper hydroxide] | 11% | 22%
5 | CC1CCN(c2c(-c3c(F)cc(F)cc3F)c(Cl)nc3ncnn23)CC1 [I, 5-chloro-7-(4-methylpiperidin-1-yl)-6-(2,4,6-trifluorophenyl)[1,2,4]triazolo [1,5-a]pyrimidine] | 0% | 
6 | CC1CCN(c2c(-c3c(F)cccc3Cl)c(Cl)nc3ncnn23)CC1 [comparative compound A] | 0% | 
